The values that follow are results of earlier work, collected in patent US20080033027A1, “Drug combination pharmaceutical compositions and methods for using them” (VICUS THERAPEUTICS SPE 1, LLC, priority 2005, published 2008).

For data set [1] the following is noted: for solubility in ethanol / alcohol: alcohol(s).
The conditions of data set [2]: for Elimination, Biliary/fecal (%): share eliminated by the biliary/fecal route; for Elimination, Renal (%): share eliminated by the renal route; for Elimination (% unchanged): value in parentheses.
The conditions of data set [3]: oral EPA, after entering the blood stream.
Data set [4] relates to cachectic severely burned children; cachectic metastatic cancer patients.
Where [5] appears, read: cachectic metastatic cancer patients.
Setting [6] is: cachectic severely burned children.

Structures are written as SMILES. Counter-ions that a name gives are not always drawn. Like-named read-outs stand apart in the source and are kept apart here.

Regarding `COCCc1ccc(OCC(O)CNC(C)C)cc1` (racemic) [Metoprolol succinate, (±)1-(isopropylamino)-3-[p-(2-methoxyethyl)phenoxy]-2-propanol succinate (2:1) (salt)], in data set [1], the “solubility in ethanol / alcohol” value is listed as “sparingly soluble” and the solubility in water result is on record as “freely soluble”.

As to `COCCc1ccc(OCC(O)CNC(C)C)cc1` (racemic) [Metoprolol tartrate, (±)-1-(isopropylamino)-3-(p-(2-(methoxyethyl)phenoxy)-2-propanol (2:1) dextrotartrate salt], in data set [1], the “solubility in ethanol / alcohol” value is listed as “freely soluble” and the solubility in water result is “very soluble”.

With `CCc1cccc2c3c([nH]c12)C(CC)(CC(=O)O)OCC3` (single isomer, unassigned; (+)) [Etodolac, (+) 1,8-diethyl-1,3,4,9-tetrahydropyrano-[3,4-b]indole-1-acetic acid], the GI complications rate entry (among non-specific Cox inhibitors) is “lowest”. Further, the cardiovascular events result (compared with specific cox2 inhibitors) is “without the reported increase”. Further, in data set [1], the “solubility in ethanol / alcohol” value is reported as “soluble” and the solubility in water result is on record as “insoluble”.

Regarding `CCCC(=O)Nc1ccc(OCC(O)CNC(C)C)c(C(C)=O)c1` (stereo not shown) [Acebutolol], in data set [2] (in vivo), the “Half-life” value is 3 to 4 h and the “Oral Absorp. (%)” value is listed as 70%. Also, in data set [2], the “Elimination, Biliary/fecal (%)” value was 50-60% and the “Elimination, Renal (%)” value is listed as 30-40%.

For the molecule `CC(C)NCC(O)COc1ccc(CC(N)=O)cc1` (stereo not shown) [Atenolol], the “Oral Absorp. (%)” value in data set [2] (in vivo) is given as 50-60%. In addition, in data set [2], the “Elimination, Renal (%)” value is on record as 85-100% and the “Time to Peak Effect Single dose” value is 2 to 4 h.

Turning to `CC(C)NCC(O)COc1ccc(CCOCC2CC2)cc1` (stereo not shown) [Betaxolol], in data set [2] (in vivo), the Biotransformation entry is listed as “Hepatic”, the “Half-life” value is 14 to 22 h, the “Removable by Hemodialysis” value is “No” and the “Oral Absorp. (%)” value is listed as 80-89%. In data set [2], the “Elimination, Renal (%)” value is greater than 80%; the “Time to Peak Effect Single dose” value is 3 to 4 h; the “Elimination (% unchanged)” value was 15%.

Take `CC(C)NCC(O)COc1ccc(COCCOC(C)C)cc1` (stereo not shown) [Bisoprolol]: in data set [2] (in vivo), the Biotransformation entry was “Hepatic”, the “Elimination (route)” value is “Renal”, the “Half-life” value is 9 to 12 h and the “Removable by Hemodialysis” value is “No”. The “Oral Absorp. (%)” value in data set [2] (in vivo) was 80-90%. In addition, in data set [2], the “Elimination, Biliary/fecal (%)” value was less than 2% Fecal and the “Elimination (% unchanged)” value was 50%. The Half-life in data set [2] (stated in the text) was 10 to 12 h.

As for `CC(C)(C)NCC(O)COc1cccc2c1CCC(=O)N2` (stereo not shown) [Carteolol], in data set [2] (in vivo), the Biotransformation entry is “Hepatic”, the “Elimination (route)” value is listed as “Renal”, the “Half-life” value was 6 h and the “Oral Absorp. (%)” value is 85%. Besides, in data set [2], the “Time to Peak Effect Single dose” value is 1 to 3 h and the “Elimination (% unchanged)” value is “(50-70) %”.

Consider `COc1ccccc1OCCNCC(O)COc1cccc2[nH]c3ccccc3c12` (stereo not shown) [Carvedilol], for which, in data set [2] (in vivo), the Biotransformation entry is on record as “Hepatic”, the “Half-life” value is 7 to 10 h, the “Removable by Hemodialysis” value was “No” and the “Oral Absorp. (%)” value is 25-35%. Moreover, in data set [2], the “Elimination, Renal (%)” value is given as less than 2% Renal.

For `CC/C=C\C/C=C\C/C=C\C/C=C\C/C=C\CCCC(=O)O` [EPA, eicosapentaenoic acid], the “cleared in the first pass (liver)” value in data set [3] is listed as no more than 90%.

For `CC(CCc1ccccc1)NCC(O)c1ccc(O)c(C(N)=O)c1` (stereo not shown) [Labetalol], in data set [2] (IV), the “Half-life (hr)” value is on record as roughly 5.5 IV hr and the “Time to Peak Effect Single dose” value is 0.083 h (IV). In data set [2] (in vivo), the Biotransformation entry is on record as “Hepatic”, the “Elimination (route)” value is listed as “Biliary/fecal”, the “Removable by Hemodialysis” value is “No” and the “Oral Absorp. (%)” value is listed as 100%. Further, in data set [2] (oral), the “Half-life (hr)” value was 6-8 oral hr and the “Time to Peak Effect Single dose” value was 2 to 4 h. In data set [2], the “Elimination, Renal (%)” value is given as 55-60% and the “Elimination (% unchanged)” value is reported as less than 5%.

Take `COCCc1ccc(OCC(O)CNC(C)C)cc1` (stereo not shown) [Metoprolol]: the “Half-life” value in data set [2] (in vivo) is 3 to 7 h.

As to `CC(C)(C)NCC(O)COc1cccc2c1CC(O)C(O)C2` (stereo not shown) [Nadolol], in data set [2] (in vivo), the Biotransformation entry is given as “None”, the “Elimination (route)” value is reported as “Renal”, the “Half-life” value was 20 to 24 h and the “Removable by Hemodialysis” value is “Yes”. Besides, the “Oral Absorp. (%)” value in data set [2] (in vivo) is 30%. Moreover, in data set [2], the “Time to Peak Effect Single dose” value was 4 h and the “Elimination (% unchanged)” value is 70%. For the same molecule, in data set [2] (stated in the text), the Half-life was 10 to 24 h and the route of elimination entry is “kidney excreted”.

For `C=CCOc1ccccc1OCC(O)CNC(C)C` (stereo not shown) [Oxprenolol], in data set [2] (in vivo), the Biotransformation result is “Hepatic”, the “Elimination (route)” value is recorded as “Renal”, the “Half-life” value was 1.3 to 1.5 h and the “Oral Absorp. (%)” value is 90%. For the same molecule, the “Elimination (% unchanged)” value in data set [2] was less than 5%.

For the molecule `CC(C)(C)NC[C@H](O)COc1ccccc1C1CCCC1` [Penbutolol], in data set [2] (in vivo), the Biotransformation result is listed as “Hepatic”, the “Half-life” value was 5 h, the “Removable by Hemodialysis” value was “No” and the “Oral Absorp. (%)” value was 100%. In addition, in data set [2], the “Elimination, Renal (%)” value is reported as 90%; the “Time to Peak Effect Single dose” value was 1.5 to 3 h; the “Elimination (% unchanged)” value is recorded as 0%.

`CC(C)NCC(O)COc1cccc2[nH]ccc12` (stereo not shown) [Pindolol]: in data set [2] (in vivo), the “Elimination (route)” value is given as “Renal”, the “Half-life” value is 3 to 4 h and the “Oral Absorp. (%)” value is 90-100%. In data set [2], the “Elimination (% unchanged)” value is 40%.

As to `CC(C)NCC(O)COc1cccc2ccccc12.Cl` (stereo not drawn) [Propranolol, 2-Propanol, 1-[(1-methylethyl)amino]-3-(1-naphthalenyloxy)-, hydrochloride, (+)-], the “Half-life” value in data set [2] (in vivo) is 3 to 5 h. Moreover, the adverse events result in data set [4] (both previous trials) is on record as “No adverse events were reported”. Also, in data set [4] (setting [5]), the elevated inflammatory cytokines entry is reported as “reduction” and the “elevated resting energy expenditure” value is on record as “reduction”. Moreover, in data set [4] (setting [6]), the elevated inflammatory cytokines entry is “reduction”, the “elevated resting energy expenditure” value is reported as “reduction” and the “rate of loss of lean body mass” value is “reduction”. Also, the “stability of the solid” value in data set [1] (crystalline solid) is “stable”. Also, in data set [1], the “solubility in ethanol / alcohol” value is “readily soluble” and the solubility in water result was “readily soluble”.

For the molecule `CC(C)NCC(O)c1ccc(NS(C)(=O)=O)cc1` (stereo not shown) [Sotalol], in data set [2] (in vivo), the “Elimination (route)” value is recorded as “Renal”, the “Half-life” value was 7 to 18 h and the “Oral Absorp. (%)” value is listed as greater than 80%. In data set [2], the “Elimination (% unchanged)” value is reported as 75%.

Regarding `CC(C)(C)NC[C@H](O)COc1nsnc1N1CCOCC1` [Timolol], in data set [2] (in vivo), the Biotransformation result is “Hepatic”, the “Half-life” value is 4 h, the “Removable by Hemodialysis” value was “No” and the “Oral Absorp. (%)” value is on record as 90%. Also, the “Elimination (route)” value in data set [2] (in vivo, fecal elimination) is reported as “Fecal”. For the same molecule, in data set [2] (in vivo, renal elimination), the “Elimination (route)” value is recorded as “Renal”. For the same molecule, in data set [2], the “Time to Peak Effect Single dose” value was 1 to 2 h and the “Elimination (% unchanged)” value is 20%.
